Key:
[1] = refractive index (Na D-line) (dimensionless); details: 101.33 kPa, Liquid
[2] = 101 kPa, Liquid; for speed of sound: Linear variable-path acoustic interferometer
[3] = refractive index (Na D-line) (dimensionless); xn = mol fraction of the nth substance listed; details: 101 kPa, Liquid
[4] = xn = mol fraction of the nth substance listed; details: 101 kPa, Liquid; for speed of sound: Linear variable-path acoustic interferometer

CCCCO [butan-1-ol]
Details	mass density, 298.15 K [kg/m3]	mass density, 303.15 K [kg/m3]	mass density, 308.15 K [kg/m3]	refractive index, 298.15 K	refractive index, 303.15 K	refractive index, 308.15 K	speed of sound, 298.15 K [m/s]	viscosity, 298.15 K [mPa·s]	viscosity, 303.15 K [mPa·s]	viscosity, 308.15 K [mPa·s]
[1]	–	–	–	1.3983	1.3959	1.394	–	–	–	–
[2]	808.49	804.6	800.67	–	–	–	1268	2.587	2.254	1.988

CC(C)O [propan-2-ol]
Details	mass density, 298.15 K [kg/m3]	mass density, 303.15 K [kg/m3]	mass density, 308.15 K [kg/m3]	refractive index, 298.15 K	refractive index, 303.15 K	refractive index, 308.15 K	speed of sound, 298.15 K [m/s]	viscosity, 298.15 K [mPa·s]	viscosity, 303.15 K [mPa·s]	viscosity, 308.15 K [mPa·s]
[1]	–	–	–	1.3765	1.3741	1.3716	–	–	–	–
[2]	781.05	776.79	772.43	–	–	–	1144	2.076	1.786	1.532

CCO [ethanol]
Details	mass density, 298.15 K [kg/m3]	mass density, 303.15 K [kg/m3]	mass density, 308.15 K [kg/m3]	refractive index, 298.15 K	refractive index, 303.15 K	refractive index, 308.15 K	speed of sound, 298.15 K [m/s]	viscosity, 298.15 K [mPa·s]	viscosity, 303.15 K [mPa·s]	viscosity, 308.15 K [mPa·s]
[1]	–	–	–	1.3608	1.3589	1.3563	–	–	–	–
[2]	785.66	781.34	776.99	–	–	–	1161	1.083	0.985	0.8954

CC1CCCCC1 [methylcyclohexane] + CCO
Details	mass density, 298.15 K [kg/m3]	mass density, 303.15 K [kg/m3]	mass density, 308.15 K [kg/m3]	refractive index, 298.15 K	refractive index, 303.15 K	refractive index, 308.15 K	speed of sound, 298.15 K [m/s]	viscosity, 298.15 K [mPa·s]	viscosity, 303.15 K [mPa·s]	viscosity, 308.15 K [mPa·s]
[3], x1 = 0.1023	–	–	–	1.371	1.3686	1.3662	–	–	–	–
[3], x1 = 0.2031	–	–	–	1.3796	1.3764	1.3744	–	–	–	–
[3], x1 = 0.304	–	–	–	1.3881	1.3853	1.3825	–	–	–	–
[3], x1 = 0.405	–	–	–	1.3949	1.3921	1.3893	–	–	–	–
[3], x1 = 0.5061	–	–	–	1.4017	1.3989	1.3961	–	–	–	–
[3], x1 = 0.6029	–	–	–	1.4068	1.4038	1.4008	–	–	–	–
[3], x1 = 0.6998	–	–	–	1.412	1.4087	1.4054	–	–	–	–
[3], x1 = 0.8016	–	–	–	1.417	1.4135	1.41	–	–	–	–
[3], x1 = 0.9034	–	–	–	1.4192	1.4169	1.4146	–	–	–	–
[3], x1 = 1	–	–	–	1.4217	1.4192	1.4163	–	–	–	–
[4], x1 = 0.1023	779.57	775.21	770.8	–	–	–	1167	0.9923	0.9068	0.8212
[4], x1 = 0.2031	775.92	771.51	767.07	–	–	–	1172	0.9225	0.8458	0.7691
[4], x1 = 0.304	772.55	768.07	763.6	–	–	–	1178	0.8558	0.788	0.7202
[4], x1 = 0.405	770.25	765.74	761.26	–	–	–	1183	0.808	0.7464	0.6848
[4], x1 = 0.5061	768.4	763.87	759.36	–	–	–	1189	0.7632	0.7079	0.6525
[4], x1 = 0.6029	767.13	762.62	758.09	–	–	–	1195	0.7293	0.677	0.6248
[4], x1 = 0.6998	766.01	761.51	756.97	–	–	–	1200	0.6984	0.6477	0.5971
[4], x1 = 0.8016	765.34	760.87	756.37	–	–	–	1206	0.6857	0.6392	0.5927
[4], x1 = 0.9034	764.79	760.27	755.77	–	–	–	1212	0.6762	0.6323	0.5884
[4], x1 = 1	764.99	760.66	756.3	–	–	–	1217	0.6757	0.631	0.5902

CC1CCCCC1 [methylcyclohexane] + CCCO
Details	mass density, 298.15 K [kg/m3]	mass density, 303.15 K [kg/m3]	mass density, 308.15 K [kg/m3]	refractive index, 298.15 K	refractive index, 303.15 K	refractive index, 308.15 K	speed of sound, 298.15 K [m/s]	viscosity, 298.15 K [mPa·s]	viscosity, 303.15 K [mPa·s]	viscosity, 308.15 K [mPa·s]
[3], x1 = 0.1008	–	–	–	1.3888	1.3865	1.3841	–	–	–	–
[3], x1 = 0.2027	–	–	–	1.3934	1.391	1.3886	–	–	–	–
[3], x1 = 0.3047	–	–	–	1.3979	1.3955	1.3932	–	–	–	–
[3], x1 = 0.4039	–	–	–	1.4016	1.3994	1.3971	–	–	–	–
[3], x1 = 0.5031	–	–	–	1.4053	1.4032	1.4011	–	–	–	–
[3], x1 = 0.6008	–	–	–	1.409	1.4066	1.4043	–	–	–	–
[3], x1 = 0.6985	–	–	–	1.4127	1.4101	1.4075	–	–	–	–
[3], x1 = 0.799	–	–	–	1.4159	1.4133	1.4106	–	–	–	–
[3], x1 = 0.8995	–	–	–	1.4191	1.4164	1.4137	–	–	–	–
[3], x1 = 1	–	–	–	1.4217	1.4192	1.4163	–	–	–	–
[4], x1 = 0.1008	801.22	796.96	792.71	–	–	–	1207	1.729	1.536	1.343
[4], x1 = 0.2027	794.2	789.87	785.57	–	–	–	1208	1.471	1.317	1.162
[4], x1 = 0.3047	788.08	783.7	779.32	–	–	–	1209	1.26	1.136	1.013
[4], x1 = 0.4039	782.97	778.55	774.13	–	–	–	1210	1.102	0.9975	0.8926
[4], x1 = 0.5031	778.56	774.16	769.74	–	–	–	1212	0.9688	0.8863	0.8037
[4], x1 = 0.6008	774.91	770.45	765.97	–	–	–	1213	0.8839	0.813	0.742
[4], x1 = 0.6985	771.66	767.2	762.69	–	–	–	1214	0.7998	0.7403	0.6808
[4], x1 = 0.799	768.83	764.32	759.8	–	–	–	1215	0.7511	0.6984	0.6457
[4], x1 = 0.8995	766.39	761.95	757.5	–	–	–	1216	0.7028	0.6568	0.6107
[4], x1 = 1	764.99	760.66	756.3	–	–	–	1217	0.6757	0.631	0.5902

CC(C)CO [2-methyl-1-propanol] + CC1CCCCC1
x2 = 0
Details	mass density, 298.15 K [kg/m3]	mass density, 303.15 K [kg/m3]	mass density, 308.15 K [kg/m3]	refractive index, 298.15 K	refractive index, 303.15 K	refractive index, 308.15 K	speed of sound, 298.15 K [m/s]	viscosity, 298.15 K [mPa·s]	viscosity, 303.15 K [mPa·s]	viscosity, 308.15 K [mPa·s]
[3]	–	–	–	1.3932	1.3917	1.3896	–	–	–	–
[4]	809.31	805.23	801.11	–	–	–	1170	3.097	2.635	2.249

CC1CCCCC1 [methylcyclohexane] + CCCCO
Details	mass density, 298.15 K [kg/m3]	mass density, 303.15 K [kg/m3]	mass density, 308.15 K [kg/m3]	refractive index, 298.15 K	refractive index, 303.15 K	refractive index, 308.15 K	speed of sound, 298.15 K [m/s]	viscosity, 298.15 K [mPa·s]	viscosity, 303.15 K [mPa·s]	viscosity, 308.15 K [mPa·s]
[3], x1 = 0.1021	–	–	–	1.4036	1.4015	1.3994	–	–	–	–
[3], x1 = 0.2041	–	–	–	1.4034	1.4008	1.3982	–	–	–	–
[3], x1 = 0.3027	–	–	–	1.406	1.4035	1.4009	–	–	–	–
[3], x1 = 0.4013	–	–	–	1.4087	1.4062	1.4037	–	–	–	–
[3], x1 = 0.5039	–	–	–	1.4105	1.4081	1.4057	–	–	–	–
[3], x1 = 0.6066	–	–	–	1.4121	1.4099	1.4076	–	–	–	–
[3], x1 = 0.7014	–	–	–	1.4147	1.4122	1.4097	–	–	–	–
[3], x1 = 0.7963	–	–	–	1.4169	1.4143	1.4117	–	–	–	–
[3], x1 = 0.8981	–	–	–	1.4193	1.4167	1.414	–	–	–	–
[3], x1 = 1	–	–	–	1.4217	1.4192	1.4163	–	–	–	–
[4], x1 = 0.1021	801.93	797.96	793.95	–	–	–	1263	2.396	2.122	1.848
[4], x1 = 0.2041	795.62	791.47	787.32	–	–	–	1258	2.205	1.957	1.709
[4], x1 = 0.3027	790.23	786.03	781.87	–	–	–	1253	2.021	1.797	1.573
[4], x1 = 0.4013	785.45	781.24	776.99	–	–	–	1248	1.834	1.636	1.438
[4], x1 = 0.5039	780.86	776.57	772.29	–	–	–	1243	1.639	1.468	1.296
[4], x1 = 0.6066	776.73	772.4	768.04	–	–	–	1238	1.443	1.288	1.153
[4], x1 = 0.7014	773.21	768.83	764.46	–	–	–	1233	1.262	1.141	1.021
[4], x1 = 0.7963	770.14	765.74	761.34	–	–	–	1227	1.08	0.9828	0.8858
[4], x1 = 0.8981	767.52	763.15	758.77	–	–	–	1222	0.8808	0.8104	0.74
[4], x1 = 1	764.99	760.66	756.3	–	–	–	1217	0.6757	0.631	0.5902

CCO [ethanol] + CC1CCCCC1
x2 = 0
Details	mass density, 298.15 K [kg/m3]	mass density, 303.15 K [kg/m3]	mass density, 308.15 K [kg/m3]	refractive index, 298.15 K	refractive index, 303.15 K	refractive index, 308.15 K	speed of sound, 298.15 K [m/s]	viscosity, 298.15 K [mPa·s]	viscosity, 303.15 K [mPa·s]	viscosity, 308.15 K [mPa·s]
[3]	–	–	–	1.3608	1.3589	1.3563	–	–	–	–
[4]	785.66	781.34	776.99	–	–	–	1161	1.083	0.985	0.8954
